Measured values published in US5700804A, “Pharmaceutical compounds” (Xenova Limited, priority 1992, dated 1997).

Target: PAI-1 (Homo sapiens, UniProt P05121)
Assay: PAI chromogenic substrate assay (first S2251 assay, tPA/plasminogen system)
Format: biochemical
Protocol: In this assay, a compound is incubated with PAI-1 prior to addition to the tPA assay system. Inhibition of PAI-1 results in the production of plasmin from plasminogen. In turn, plasmin cleaves the chromogenic substrate S2251 (Kabi Vitrum) producing pNA (p-nitroaniline) which is detected spectrophotometrically at 405 nm (K. Nilsson et al, Fibrinolysis (1987) 1, 163-168).
Compounds of formula (A) were tested in a PAI chromogenic substrate assay. In the first assay (K. Nilsson, Fibrinolysis (1987) 1, 163-168) each compound was incubated with PAI-1 prior to addition to the tPA assay system. […] In turn, the plasmin cleaved the chromogenic substrate S2251 (Kabi-Vitrum) producing pNA (p-nitroaniline) which was detected spectrophotometrically at 405 nm.

Chain of PAI-1 (P05121 24-402): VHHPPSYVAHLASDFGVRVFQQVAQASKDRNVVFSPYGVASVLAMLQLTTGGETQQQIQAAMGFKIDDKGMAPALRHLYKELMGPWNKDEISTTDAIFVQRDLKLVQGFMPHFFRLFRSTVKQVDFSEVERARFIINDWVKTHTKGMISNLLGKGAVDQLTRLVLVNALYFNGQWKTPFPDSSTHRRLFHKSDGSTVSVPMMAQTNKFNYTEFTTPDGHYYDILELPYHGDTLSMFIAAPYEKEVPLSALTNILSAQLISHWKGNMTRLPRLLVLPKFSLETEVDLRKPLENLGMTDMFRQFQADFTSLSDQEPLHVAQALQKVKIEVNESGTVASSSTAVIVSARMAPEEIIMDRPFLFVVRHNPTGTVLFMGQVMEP

SMILES | Inhibition of PAI-1 in the first S2251 chromogenic substrate assay (Concentration 25 μm) [%] | Inhibition of PAI-1 in the first S2251 chromogenic substrate assay (Concentration 50 μm) [%] | Inhibition of PAI-1 in the first S2251 chromogenic substrate assay (Concentration 100 μm) [%] | Inhibition of PAI-1 in the first S2251 chromogenic substrate assay (Concentration 3.75 μm) [%] | Inhibition of PAI-1 in the first S2251 chromogenic substrate assay (Concentration 7.5 μm) [%] | Inhibition of PAI-1 in the first S2251 chromogenic substrate assay (Concentration 15 μm) [%] | Inhibition of PAI-1 in the first S2251 chromogenic substrate assay (Concentration 30 μm) [%] | Inhibition of PAI-1 in the first S2251 chromogenic substrate assay (Concentration 60 μm) [%] | Inhibition of PAI-1 in the first S2251 chromogenic substrate assay (Concentration 12.5 μm) [%] | Inhibition of PAI-1 in the first S2251 chromogenic substrate assay (Concentration 6.25 μm) [%]
O=c1[nH]/c(=C\c2cccc([N+](=O)[O-])c2)c(=O)[nH]/c1=C\c1cccc([N+](=O)[O-])c1 [Compound 35, (3Z,6Z)-3,6-Di-(3-Nitrobenzylidene)-2,5-piperazinedione] | 2 | 28 | 52 | – | – | – | – | – | – | –
CC(=O)Nc1ccc(/C=c2\[nH]c(=O)/c(=C/c3ccc(F)cc3)[nH]c2=O)cc1 [Compound 72, (3Z,6Z)-3-(4-Acetamidobenzylidene)-6-(4-fluorobenzylidene)-2,5-piperazinedione] | – | – | – | 2 | 1 | 18 | 75 | 76 | – | –
CC(=O)Nc1ccc(/C=c2\[nH]c(=O)/c(=C/c3ccccc3C(F)(F)F)[nH]c2=O)cc1 [Compound 78, (3Z,6Z)-6-(4-Acetamidobenzylidene)-3-(2-trifluoromethylbenzylidene)-2,5-piperazinedione] | 36 | 57 | 30 | – | – | – | – | – | 4 | 2
CC(=O)Nc1ccc(/C=c2\[nH]c(=O)/c(=C/c3ccc(COC(C)=O)cc3)[nH]c2=O)cc1 [Compound 58, (3Z,6Z)-3-(4-Acetamidobenzylidene)-6-(4-acetoxymethylbenzylidene)-2,5-piperazinedione] | 1 | 31 | 60 | – | – | – | – | – | 1 | –
CC(=O)Oc1cccc(/C=c2\[nH]c(=O)/c(=C/c3ccccc3)[nH]c2=O)c1 [Compound 31, (3Z,6Z)-3-(3-Acetoxybenzylidene)-6-benzylidene-2,5-piperazinedione] | 2 | 12 | 58 | – | – | – | – | – | 1 | 0
COc1ccc(/C=c2\[nH]c(=O)/c(=C/c3ccc(NC(=O)COC(C)=O)cc3)[nH]c2=O)cc1 [Compound 87, (3Z,6Z)-3-(4-Acetoxyacetylaminobenzylidene)-6-(4-methoxybenzylidene)-2,5-piperazinedione] | 70 | 81 | 78 | – | – | – | – | – | 28 | 0
COc1ccc(/C=c2\[nH]c(=O)/c(=C/c3ccc(OC)cc3OC)[nH]c2=O)cc1 [Compound 73, (3Z,6Z)-3-(2,4-Dimethoxybenzylidene)-6-(4-methoxybenzylidene)-2,5-piperazinedione] | 1 | 3 | 50 | – | – | – | – | – | 2 | –
CC(=O)SCc1ccc(/C=c2\[nH]c(=O)/c(=C/c3ccccc3)[nH]c2=O)cc1 [Compound 76, (3Z,6Z)-6-Benzylidene-3-(4-thioacetoxymethylbenzylidene)-2,5-piperazinedione] | 50 | 75 | 66 | – | – | – | – | – | 5 | 2
CCCCOc1ccc(/C=c2\[nH]c(=O)/c(=C/c3ccccc3)[nH]c2=O)cc1 [Compound 48, (3Z,6Z)-6-Benzylidene-3-(4-butoxybenzylidene)-2,5-piperazinedione] | 26 | 57 | 73 | – | – | – | – | – | 3 | –
COc1ccc(/C=c2\[nH]c(=O)/c(=C/c3ccc(OC(=O)C(C)(C)C)cc3)[nH]c2=O)cc1 [Compound 81, (3Z,6Z)-3-(4-Methoxybenzylidene)-6-(4-trimethylacetoxybenzylidene)-2,5-piperazinedione] | 1 | 1 | 64 | – | – | – | – | – | 0 | –

Other lines, results leading:

Inhibition of PAI-1 in the first S2251 chromogenic substrate assay (Concentration 25 μm) [%] | Inhibition of PAI-1 in the first S2251 chromogenic substrate assay (Concentration 50 μm) [%] | Inhibition of PAI-1 in the first S2251 chromogenic substrate assay (Concentration 100 μm) [%] | Inhibition of PAI-1 in the first S2251 chromogenic substrate assay (Concentration 3.75 μm) [%] | Inhibition of PAI-1 in the first S2251 chromogenic substrate assay (Concentration 7.5 μm) [%] | Inhibition of PAI-1 in the first S2251 chromogenic substrate assay (Concentration 15 μm) [%] | Inhibition of PAI-1 in the first S2251 chromogenic substrate assay (Concentration 30 μm) [%] | Inhibition of PAI-1 in the first S2251 chromogenic substrate assay (Concentration 60 μm) [%] | Inhibition of PAI-1 in the first S2251 chromogenic substrate assay (Concentration 12.5 μm) [%] | Inhibition of PAI-1 in the first S2251 chromogenic substrate assay (Concentration 6.25 μm) [%] | SMILES
22 | 37 | 62 | – | – | – | – | – | 2 | – | COc1ccc(/C=c2\[nH]c(=O)/c(=C/c3ccc(C(C)(C)C)cc3)[nH]c2=O)cc1 [Compound 50, (3Z,6Z)-3-(4-methoxybenzylidene)-6-(4-tert-butylbenzylidene)-2,5-piperazinedione]
13 | 33 | 83 | – | – | – | – | – | 36 | – | COC(=O)c1cccc(/C=c2\[nH]c(=O)/c(=C/c3ccccc3)[nH]c2=O)c1 [Compound 62, 3-((3Z,6Z)-6-Benzylidene-2,5-dioxopiperazin-3-ylidene)methylbenzoic acid, methyl ester]
33 | 85 | 75 | – | – | – | – | – | 6 | 0 | COc1ccc(/C=c2\[nH]c(=O)/c(=C/c3ccccc3)[nH]c2=O)cc1OC [Compound 90, (3Z,6Z)-6-Benzylidene-3-(3,4-dimethoxybenzylidene)-2,5-piperazinedione]
60 | 49 | 41 | – | – | – | – | – | 40 | 0 | COc1ccc(/C=c2\[nH]c(=O)/c(=C/c3ccc(NC(=O)CO)cc3)[nH]c2=O)cc1 [Compound 88, (3Z,6Z)-3-(4-Hydroxyacetylaminobenzylidene)-6-(4-methoxybenzylidene)-2,5-piperazinedione]
1 | 1 | 56 | – | – | – | – | – | 1 | – | COC(=O)Nc1ccc(/C=c2\[nH]c(=O)/c(=C/c3ccc(OC)cc3)[nH]c2=O)cc1 [Compound 83, (3Z,6Z)-3-(4-Methoxybenzylidene)-6-(4-methoxycarbonylaminobenzylidene)-2,5-piperazinedione]
1 | 9 | 53 | – | – | – | – | – | 0 | – | COc1ccc(/C=c2\[nH]c(=O)/c(=C/c3ccc(C(N)=O)cc3)[nH]c2=O)cc1 [Compound 80, 4-[(3Z,6Z)-6-(4-Methoxybenzylidene)-2,5-dioxopiperazin-3-ylidene]methylbenzamide]
14 | 40 | 68 | – | – | – | – | – | 3 | – | COc1ccc(/C=c2\[nH]c(=O)/c(=C/c3ccc(F)cc3F)[nH]c2=O)cc1 [Compound 69, (3Z,6Z)-3-(2,4-Difluorobenzylidene)-6-(4-methoxybenzylidene)-2,5-piperazinedione]
1 | 3 | 56 | – | – | – | – | – | 1 | 0 | O=c1[nH]/c(=C\c2cccc(O)c2)c(=O)[nH]/c1=C\c1ccccc1 [Compound 33, (3Z,6Z)-6-Benzylidene-3-(3-hydroxybenzylidene)-2,5-piperazinedione]
15 | 45 | 68 | – | – | – | – | – | 2 | – | CC(C)Oc1ccc(/C=c2\[nH]c(=O)/c(=C/c3ccccc3)[nH]c2=O)cc1 [Compound 52, (3Z,6Z)-6-Benzylidene-3-(4-isopropoxybenzylidene)-2,5-piperazinedione]
33 | 52 | 59 | – | – | – | – | – | 6 | 2 | CN(C)CCCOc1ccc(/C=c2\[nH]c(=O)/c(=C/c3ccccc3)[nH]c2=O)cc1 [Compound 75, (3Z,6Z)-6-Benzylidene-3-(4-(3-N,N-dimethylaminopropoxy)benzylidene)-2,5-piperazinedione]
1 | 6 | 71 | – | – | – | – | – | – | – | COc1ccc(/C=c2\[nH]c(=O)/c(=C/c3ccc(O)cc3)[nH]c2=O)cc1 [Compound 36, (3Z,6Z)-3-(4-Hydroxybenzylidene)-6-(4-methoxybenzylidene)-2,5-piperazinedione]
